The values below come from US20120090043A1, “TARGETS FOR RETROVIRUS ASSOCIATED DISEASES” (priority 2009, published 2012).

Peptide text beside a SMILES is read from it. * marks the point of attachment. Cbz = O=C(OCc1ccccc1)*

The test system of assay [1] is HTLV-1 transformed cell line (MT4). Put plainly: Quantitative RT-PCR of HTLV-1 mRNA in MT4 cells after γ-secretase (Notch pathway) inhibition. It counts as cell-based. As to conditions: 1 μM, 48 hours, vs vehicle (0.5% DMSO), mRNA relative to GAPDH. The procedure:
FIG. 9 illustrates relative HTLV1-HBZ, -Gag and -Tax mRNA expression following MT4 cells treatment with vehicle (0.5% DMSO) or 1 μM of γ-secretase inhibitor L685,458. Viral mRNA expression data are calculated relative to GAPDH mRNA expression data as 2̂(CT(GAPDH)-CT(HBZ/Gag/Tax)) over three times triplicate experiments for each gene.
HTLV-1 transformed cell line (MT4) from Dr. Douglas Richman (Harada et al. Science, 1985, col. 229, p. 563-566) was obtained through the AIDS Research and Reference Reagent Program, Division of AIDS, NIAID, NIH. MT4 cells were cultured in RPMI supplemented with 10% fetal bovine serum and antibiotics. MT-4 cells were treated for 48 hours with a γ-secretase inhibitor (L-685,458) (Shearman et al. Biochemistry, 2000, vol. 39, 8698-8704). at 1 μM or vehicle (0.5% DMSO). Total RNA were then isolated by Trizol method, subjected to Dnase treatment and cDNAs synthesized using the RevertAid First Strand cDNA Synthesis kit according to the manufacturer instructions (Fermentas). Quantitative Real-time PCR for GAPDH, HBZ, Gag and Tax expression was performed on StepOne instrument (Applied Biosystem) using SYBR green dye (Eurogentec). Viral mRNA expression data are calculated relative to GAPDH mRNA expression data as 2̂(CT(GAPDH)—CT(HBZ/Gag/Tax)) over three times triplicate experiments for each gene, and differences were assessed through one-tailed Student's t-test.
To directly assess the involvement of the Notch pathway in viral infection, we treated HTLV-1 transformed cell line (MT4) with a γ-secretase inhibitor (GSI) (L-685,458) and tested whether inhibition of the Notch pathway could influence HTLV-1 expression in MT4 cell line.

Assay [2] deals with TRAF2. As to the kind of experiment: Western blot of HIV-1 Gag induced TRAF2 degradation in HEK293T cells. It counts as cell-based, human. From the text:
FIG. 8 illustrates (A) Western-blotting of HEK293T cell extracts transfected with expressing vectors for GST-TRAF2 or truncated mutants deltaTRAF2 and deltaRING and p55 GAG/GFP, as indicated. Cell extracts were immunobloted with anti-GST, anti-GFP and anti-actin antibodies. (B) Western-blotting of HEK293T cells transfected with expressing vectors for GST-TRAF2 or GST-deltaRING truncated mutant, p55 GAG/GFP and Myc-Ubiquitin, as indicated. Cell extracts were immunobloted with anti-GST, anti-Myc and anti-actin antibodies. (C) Cells were pretreated with the cathepsin B inhibitor CA-074Me (10 μM) or the proteasomal inhibitor MG-132 (1 μM) for 24 H. Cell lysates were analysed as in (B).
To further corroborate that HIV Gag protein targets TRAF2 for proteasomal degradation, we first co-expressed in HEK293 cells HIV-1 Gag and TRAF2 or its truncation mutants lacking the TRAF domain (ΔTRAF) required for upstream signaling, or lacking the RING domain (ΔRING) required for E3 ubiquitin ligase function and downstream signaling. […]
In the presence of HIV-1 Gag we observed reduction of TRAF2 and ΔTRAF protein levels but not with the RING domain truncated mutant (FIG. 8A). To test whether TRAF2-E3 ubiquitin ligase activity was affected by HIV1 Gag, we next co-transfected a Myc-Ubiquitin expressing vector and evaluated the levels of Myc-tagged cellular ubiquitylated proteins by immunoblotting. […]
(Immunoblotting shows a protein as a band on a membrane.)

Assay [3] relates to HTLV-1 LTR promoter transactivation by HTLV-1 Tax. Put plainly: Transactivation assay, HTLV-1 LTR luciferase reporter with HTLV-1 Tax. It is filed as cell-based. As to conditions: HEK293 cells co-transfected with pHTLV1LTR-Luc, HTLV-1 Tax and the human ORF; relative luciferase activity 24 h post-transfection; positive if >=2 or <=0.5 and p<0.05. The text has this:
(§1) Twenty-four hours post-transfection, cells were washed three times with PBS, lysed and luciferase activities determined from two independent transfection experiments in triplicate. We computed a paired t-test to assess the difference of the means between samples with and without the human interactor. For a trial to be considered positive, the relative luciferase activities has to be >=2 or <=0.5, and the p-value of the t-test<0.05.
Expression vectors encoding human ORFs and HIV-1 Tat or HTLV-1 Tax proteins were tested in a transactivation reporter assay against reporter plasmids harboring HIV-1 or HTLV-1 viral promoter sequences cloned upstream of the luciferase reporter gene. […] Wherever not expressly specified, constructs used herein were generally made by sub-cloning entry clones from the ORFeome V3.1 into suitable destination vectors.
(Reporter assays use an easily measured gene product as a stand-in for the process of interest.)

Assay [4] has as its system HIV-1 LTR promoter transactivation by HIV-1 Tat. As to the kind of experiment: Transactivation assay, HIV-1 LTR luciferase reporter with HIV-1 Tat. It counts as cell-based. As to conditions: HEK293 cells co-transfected with pHIV1LTR-Luc, HIV-1 Tat and the human ORF; relative luciferase activity 24 h post-transfection; positive if >=2 or <=0.5 and p<0.05.
Text: as §1, with “The plasmids pHIV1LTR-Luc or pHTLV1LTR-Luc containing a luciferase reporter gene under the control of the HIV-1 or HTLV-1 LTR promoters and plasmids expressing either HIV-1 Tat or HTLV-1 Tax and each human ORF found to interact with viral proteins were transfected into 10^4 HEK293 cells using the calcium phosphate method. Twenty-four” for “Twenty-four”
Many HIV/HTLV-human interactions in our data set (130/212) involved the retroviral transactivator proteins HTLV-1 Tax (57/212), HTLV-2 Tax2 (49/212), HIV-1 Tat (10/212) and HIV-2 Tat (14/212). Human proteins interacting with viral transactivators likely influence Tat or Tax transactivation. Expression vectors encoding human ORFs and HIV-1 Tat or HTLV-1 Tax proteins were tested in a transactivation reporter assay against reporter plasmids harboring HIV-1 or HTLV-1 viral promoter sequences cloned upstream of the luciferase reporter gene. In the controls Tat or Tax respectively activated HIV or HTLV LTR-directed gene expression. Co-transfection of interacting human ORFs identified 71 proteins (54% of the 131 human targets in our data set) that regulated HIV (26.7% of targets), HTLV (37.4% of targets) or both (9.9% of targets) LTR promoter activation by Tat or Tax (see Tables 7 and 8; Table 13 below containing quantitative data on the regulation of transactivation). Wherever not expressly specified, constructs used herein were generally made by sub-cloning entry clones from the ORFeome V3.1 into suitable destination vectors.

Take `CC(C)C[C@H](NC(=O)[C@H](Cc1ccccc1)C[C@@H](O)[C@H](Cc1ccccc1)NC(=O)OC(C)(C)C)C(=O)N[C@@H](Cc1ccccc1)C(N)=O` [L-685,458]: the “HTLV-1 Tax1 expression” value in assay [1] (p<0.003) is “significantly lowers”. Further, the “HTLV-1 Gag expression” value in assay [1] (p<0.04) is recorded as “significantly lowers”. Besides, in assay [1] (p<2.1E-5), the “HTLV-1 HBZ expression” value is given as “significantly lowers”.
Turning to `CC(C)C[C@@H](C=O)NC(=O)[C@H](CC(C)C)NC(=O)[C@H](CC(C)C)NC(=O)OCc1ccccc1` [MG132] (Cbz-Leu-Leu-Leu-aldehyde), the “HIV1-Gag induced degradation of TRAF2” value in assay [2] (FIG. 6) was “not inhibited”. Besides, the “HIV-1 Gag induced degradation of TRAF2” value in assay [2] (HEK293T cells pretreated with 1 μM for 24 H, FIG. 8C) was “could be blocked”.
In turn, “BHLHB2: human host interactor protein, Gene ID 8553, expressed from transfected ORF vector” yielded an HTLV_LTR transactiv. in assay [3] of 0.20 fold change.
The compound “C8orf32: human host interactor protein, Gene ID 55093, expressed from transfected ORF vector” showed an HTLV_LTR transactiv. in assay [3] of 0.26 fold change.
“CRX: human host interactor protein, Gene ID 1406, expressed from transfected ORF vector”: the HIV_LTR transactiv. in assay [4] is recorded as 0.24 fold change.
The compound “DVL2: human host interactor protein, Gene ID 1856, expressed from transfected ORF vector” showed an HIV_LTR transactiv. in assay [4] of 0.40 fold change.
“FXR2: human host interactor protein, Gene ID 9513, expressed from transfected ORF vector” showed an HTLV_LTR transactiv. in assay [3] of 0.38 fold change.
In assay [4], “HOXA3: human host interactor protein, Gene ID 3200, expressed from transfected ORF vector” returned an HIV_LTR transactiv. of 0.29 fold change. In addition, the HTLV_LTR transactiv. in assay [3] came to 0.25 fold change.
As to “HOXB9: human host interactor protein, Gene ID 3219, expressed from transfected ORF vector”, the HTLV_LTR transactiv. in assay [3] came to 3.69 fold change.
In assay [3], “KCTD1: human host interactor protein, Gene ID 284252, expressed from transfected ORF vector” registered an HTLV_LTR transactiv. of 0.42 fold change.
Take “LOC91661: human host interactor protein, Gene ID 91661, expressed from transfected ORF vector”: the HIV_LTR transactiv. in assay [4] is 0.16 fold change.
In turn, “NOS3: human host interactor protein, Gene ID 4846, expressed from transfected ORF vector” came in with an HTLV_LTR transactiv. in assay [3] of 0.45 fold change.
As to “OTX2: human host interactor protein, Gene ID 5015, expressed from transfected ORF vector”, the HTLV_LTR transactiv. in assay [3] was determined as 7.37 fold change.
“PCBP1: human host interactor protein, Gene ID 5093, expressed from transfected ORF vector” gave an HTLV_LTR transactiv. in assay [3] of 0.44 fold change.
The same measure, in the same setting: under “PSMF1: human host interactor protein, Gene ID 9491, expressed from transfected ORF vector” stands 14.83 fold change.
For “UBE2I: human host interactor protein, Gene ID 7329, expressed from transfected ORF vector”, the HIV_LTR transactiv. in assay [4] stood at 3.34 fold change.
Regarding “ZMAT1: human host interactor protein, Gene ID 84460, expressed from transfected ORF vector”, the HIV_LTR transactiv. in assay [4] amounted to 0.20 fold change.
